Results published in ChEMBL document CHEMBL2331252, “Facile one-pot synthesis of novel dispirooxindole-pyrrolidine derivatives and their antimicrobial and anticancer activity against A549 human lung adenocarcinoma cancer cell line” (Bioorg Med Chem Lett, 2013).
Converted amounts (≈) assume the structure as drawn. The source made the active and inactive calls. The rule behind the calls is not given here.

Assays:
Klebsiella pneumoniae [1] = test: Antibacterial activity against Klebsiella pneumoniae MTCC 109 after 24 hrs; type: functional; details: MTCC 109, 24 h
Salmonella typhimurium [2] = test: Antibacterial activity against Salmonella typhimurium MTCC 1251 after 24 hrs; type: functional, Salmonella enterica subsp. enterica serovar Typhimurium
Staphylococcus aureus [3] = test: Antibacterial activity against methicillin-resistant Staphylococcus aureus at 1 mg/disc after 24 hrs by disc diffusion method; type: functional
Staphylococcus aureus [4] = test: Antibacterial activity against Staphylococcus aureus MTCC 96 at 1 mg/disc after 24 hrs by disc diffusion method; type: functional
Shigella flexneri [5] = test: Antibacterial activity against Shigella flexneri MTCC 1457 after 24 hrs; type: functional; details: MTCC 1457, 24 h
A549 [6] = test: Cytotoxicity against human A549 cells assessed as cell death at 50 ug/ml by MTT assay; type: functional
Klebsiella aerogenes [7] = test: Antibacterial activity against Enterobacter aerogenes MTCC 111 after 24 hrs; type: functional
Micrococcus luteus [8] = test: Antibacterial activity against Micrococcus luteus MTCC 106 after 24 hrs; type: functional; details: MTCC 106, 24 h
Klebsiella aerogenes [9] = test: Antibacterial activity against Enterobacter aerogenes MTCC 111 at 1 mg/disc after 24 hrs by disc diffusion method; type: functional
Staphylococcus aureus [10] = test: Antibacterial activity against Staphylococcus aureus MTCC 96 after 24 hrs; type: functional; details: MTCC 96, 24 h
[11] = Antifungal activity against Malassezia pachydermatis at 1 mg/disc after 48 hrs by disc diffusion method; type: functional
Proteus vulgaris [12] = test: Antibacterial activity against Proteus vulgaris MTCC 1771 at 1 mg/disc after 24 hrs by disc diffusion method; type: functional
Shigella flexneri [13] = test: Antibacterial activity against Shigella flexneri MTCC 1457 at 1 mg/disc after 24 hrs by disc diffusion method; type: functional
Klebsiella pneumoniae [14] = test: Antibacterial activity against Klebsiella pneumoniae MTCC 109 at 1 mg/disc after 24 hrs by disc diffusion method; type: functional
Proteus vulgaris [15] = test: Antibacterial activity against Proteus vulgaris MTCC 1771 after 24 hrs; type: functional; details: MTCC 1771, 24 h
Candida albicans [16] = test: Antifungal activity against Candida albicans MTCC 227 after 48 to 72 hrs; type: functional
A549 [17] = test: Cytotoxicity against human A549 cells assessed as cell death at 100 ug/ml by MTT assay; type: functional
Candida albicans [18] = test: Antifungal activity against Candida albicans MTCC 227 at 1 mg/disc after 48 hrs by disc diffusion method; type: functional
Micrococcus luteus [19] = test: Antibacterial activity against Micrococcus luteus MTCC 106 at 1 mg/disc after 24 hrs by disc diffusion method; type: functional
A549 [20] = test: Cytotoxicity against human A549 cells assessed as cell death at 200 ug/ml by MTT assay; type: functional
Salmonella typhimurium [21] = test: Antibacterial activity against Salmonella typhimurium MTCC 1251 at 1 mg/disc after 24 hrs by disc diffusion method; type: functional, Salmonella enterica subsp. enterica serovar Typhimurium
Staphylococcus aureus [22] = test: Antibacterial activity against methicillin-resistant Staphylococcus aureus after 24 hrs; type: functional
[23] = Salmonella enterica, MTCC 1251, 24 h
[24] = Salmonella enterica subsp. enterica serovar Typhimurium

Row | Compound | MIC (Klebsiella pneumoniae [1]) [µg/mL] | MIC (Salmonella typhimurium [2]; [23]) [µg/mL] | inhibition zone (IZ) (Staphylococcus aureus [3]) [mm] | inhibition zone (IZ) (Staphylococcus aureus [4]) [mm] | MIC (Shigella flexneri [5]) [µg/mL] | Activity (A549 [6]) [%] | MIC (Micrococcus luteus [8]) [µg/mL] | MIC (Staphylococcus aureus [10]) [µg/mL] | inhibition [11] | inhibition zone (IZ) (Proteus vulgaris [12]) [mm] | inhibition zone (IZ) (Shigella flexneri [13]) [mm] | inhibition zone (IZ) (Klebsiella pneumoniae [14]) [mm] | MIC (Proteus vulgaris [15]) [µg/mL] | MIC (Candida albicans [16]) | Activity (A549 [17]) [%] | inhibition zone (IZ) (Candida albicans [18]) [mm] | inhibition zone (IZ) (Micrococcus luteus [19]) [mm] | Activity (A549 [20]) [%] | inhibition zone (IZ) (Salmonella typhimurium [21]) [mm] | MIC (Staphylococcus aureus [22]) [µg/mL] | further results
1 | CN1C[C@](C#N)(C(=O)c2c[nH]c3ccccc23)[C@]2(C(=O)Nc3ccccc32)[C@@]12C(=O)Nc1ccc(I)cc12 | 250 (≈ 408 µM) | 500 (≈ 815 µM) | 8 | 10 | 1000 (≈ 1630 µM) | 4.19 | 1000 (≈ 1630 µM) | 500 (≈ 815 µM) | inactive | 9 | 8 | 13 | 500 (≈ 815 µM) | 500 µg/mL (≈ 815 µM) | 9.66 | 10 | 8 | 17.58 | 11 | 1000 (≈ 1630 µM) | MIC (Klebsiella aerogenes [7]): inactive; inhibition zone (IZ) (Klebsiella aerogenes [9]): 9 mm
2 | C=CCN1C(=O)[C@@]2(c3ccccc31)N(C)C[C@](C#N)(C(=O)c1c[nH]c3ccccc13)[C@]21C(=O)Nc2ccccc21 | 125 (≈ 237 µM) | 62.5 (≈ 118 µM) | 9 | 11 | 1000 (≈ 1900 µM) | 5.61 | 500 (≈ 948 µM) | 500 (≈ 948 µM) | inactive | 9 | 9 | 12 | 1000 (≈ 1900 µM) | 500 µg/mL (≈ 948 µM) | 8.81 | 9 | 10 | 16 | 16 | 1000 (≈ 1900 µM) | MIC (Klebsiella aerogenes [7]): inactive; inhibition (Klebsiella aerogenes [9]): inactive
3 | CN1C[C@](C#N)(C(=O)c2c[nH]c3ccccc23)[C@]2(C(=O)Nc3ccccc32)[C@@]12C(=O)Nc1ccc(Cl)cc12 | 125 (≈ 239 µM) | 500 (≈ 958 µM) | 8 | 9 | 1000 (≈ 1920 µM) | 3.58 | 1000 (≈ 1920 µM) | 500 (≈ 958 µM) | inactive | 13 | 11 | 14 | 250 (≈ 479 µM) | 500 µg/mL (≈ 958 µM) | 7.38 | 9 | 10 | 13.15 | 8 | 500 (≈ 958 µM) | MIC (Klebsiella aerogenes [7]): inactive; inhibition (Klebsiella aerogenes [9]): inactive
4 | CN1C[C@](C#N)(C(=O)c2c[nH]c3ccccc23)[C@]2(C(=O)Nc3ccccc32)[C@@]12C(=O)Nc1ccccc12 | 125 (≈ 256 µM) |  | 10 | 8 | 500 (≈ 1030 µM) | 17.46 | 500 (≈ 1030 µM) | 500 (≈ 1030 µM) | inactive | 8 | 8 | 12 | 500 (≈ 1030 µM) | 500 µg/mL (≈ 1030 µM) | 20.91 | 9 | 9 | 33.5 |  | 500 (≈ 1030 µM) | MIC (Salmonella typhimurium [2]; [24]): inactive; MIC (Klebsiella aerogenes [7]; MTCC 111, 24 h): 500 µg/mL (≈ 1030 µM); inhibition zone (IZ) (Klebsiella aerogenes [9]): 9 mm; inhibition (Salmonella typhimurium [21]; [24]): inactive
5 | CN1C(=O)[C@@]2(c3cc(I)ccc31)N(C)C[C@](C#N)(C(=O)c1c[nH]c3ccccc13)[C@]21C(=O)Nc2ccccc21 | 500 (≈ 797 µM) | 500 (≈ 797 µM) | 12 | 11 | 500 (≈ 797 µM) | 4.34 | 125 (≈ 199 µM) | 125 (≈ 199 µM) |  | 9 | 10 | 9 | 500 (≈ 797 µM) | 500 µg/mL (≈ 797 µM) | 12.66 | 9 | 11 | 26.85 | 10 | 125 (≈ 199 µM) | MIC (Klebsiella aerogenes [7]; MTCC 111, 24 h): 125 µg/mL (≈ 199 µM); inhibition zone (IZ) (Klebsiella aerogenes [9]): 13 mm; inhibition zone (IZ) [11]: 11 mm
6 | Cc1ccc2c(c1)[C@]1(C(=O)N2C)N(C)C[C@](C#N)(C(=O)c2c[nH]c3ccccc23)[C@]12C(=O)Nc1ccccc12 | 125 (≈ 242 µM) | 500 (≈ 970 µM) | 8 | 9 | 125 (≈ 242 µM) | 0.66 | 500 (≈ 970 µM) | 500 (≈ 970 µM) | inactive | 12 | 11 | 11 | 125 (≈ 242 µM) | 500 µg/mL (≈ 970 µM) | 10.73 | 8 | 10 | 15.12 | 9 | 500 (≈ 970 µM) | MIC (Klebsiella aerogenes [7]; MTCC 111, 24 h): 125 µg/mL (≈ 242 µM); inhibition zone (IZ) (Klebsiella aerogenes [9]): 13 mm
7 | CCN1C(=O)[C@@]2(c3ccccc31)N(C)C[C@](C#N)(C(=O)c1c[nH]c3ccccc13)[C@]21C(=O)Nc2ccccc21 | 500 (≈ 970 µM) | 500 (≈ 970 µM) | 11 | 9 | 500 (≈ 970 µM) | 7.16 | 500 (≈ 970 µM) | 500 (≈ 970 µM) | inactive | 9 | 9 | 10 | 500 (≈ 970 µM) | 500 µg/mL (≈ 970 µM) | 18.61 | 8 | 11 | 26.58 | 7 | 500 (≈ 970 µM) | MIC (Klebsiella aerogenes [7]; MTCC 111, 24 h): 500 µg/mL (≈ 970 µM); inhibition zone (IZ) (Klebsiella aerogenes [9]): 8 mm
8 | CCCCCCN1C(=O)[C@@]2(c3ccccc31)N(C)C[C@](C#N)(C(=O)c1c[nH]c3ccccc13)[C@]21C(=O)Nc2ccccc21 | 125 (≈ 219 µM) | 500 (≈ 875 µM) | 10 | 11 | 500 (≈ 875 µM) | 48.03 | 500 (≈ 875 µM) | 125 (≈ 219 µM) | inactive | 9 | 10 | 11 | 500 (≈ 875 µM) | inactive | 56.74 |  | 10 | 62.03 | 9 | 500 (≈ 875 µM) | MIC (Klebsiella aerogenes [7]; MTCC 111, 24 h): 500 µg/mL (≈ 875 µM); inhibition zone (IZ) (Klebsiella aerogenes [9]): 9 mm; inhibition (Candida albicans [18]): inactive
